Test results reported in US20170266152A1, “PHARMACEUTICAL COMPOSITION, METHODS FOR TREATING AND USES THEREOF” (Boehringer Ingelheim International GmbH, priority 2016, published 2017).

Legend:
[1] = crystalline form (WO 2006/117359, WO 2011/039107); cited from earlier work
[2] = patients with type 2 diabetes mellitus and high cardiovascular risk; cited from earlier work
[3] = Clinical studies of haemodynamic, vascular and autonomic cardiovascular effects of empagliflozin; format: in vivo
Source text: It may be assumed that altered glucose and sodium gradients within the kidney may generate a sympathoinhibitory afferent renal nerve signal. The lack of sympathetic activation may contribute to a beneficial cardiovascular and renal profile of empagliflozin (cardiorenal axis). Based on clinical and non-clinical studies including mechanistic considerations, such as the effect of empagliflozin on human autonomic cardiovascular regulation, the use of empagliflozin in the treatment and prevention of certain diseases and conditions, in particular in chronic heart failure, acute heart failure and chronic kidney disease, is described hereinbefore and hereinafter.

[4] = Cherney et al. 2014; cited from earlier work
[5] = metformin on its own, in the diabetic; cited from earlier work

SMILES | physico-chemical stability [1] | solubility [1] | risk of hospitalization for heart failure [2] | reflex-mediated sympathetic activation ([3]; in contrast to increases observed with diuretics) | blood pressure ([3]; treatment with empagliflozin) | heart rate ([3]; treatment with empagliflozin) | rate pressure product (RPP), surrogate marker of cardiac oxygen demand ([3]; treatment with empagliflozin) | arterial stiffness [4] | direct vascular effects [4] | diuretic effect [4] | average improvement in the HbA1c value [5]
OC[C@H]1O[C@@H](c2ccc(Cl)c(Cc3ccc(O[C@H]4CCOC4)cc3)c2)[C@H](O)[C@@H](O)[C@@H]1O [empagliflozin, 1-chloro-4-(β-D-glucopyranos-1-yl)-2-[4-((S)-tetrahydrofuran-3-yloxy)-benzyl]-benzene] | physico-chemically stable | good solubility properties | reduced the risk | not being associated with clinically relevant reflex-mediated sympathetic activation | blood pressure reductions | without clinically relevant changes of the heart rate | improving rate pressure product | reduced arterial stiffness | direct vascular effects | shows a diuretic effect | –
CN(C)C(=N)N=C(N)N [metformin] | – | – | – | – | – | – | – | – | – | – | 1.0-1.5%
